Assay [1] relates to Nippostrongylus brasiliensis. The experiment in a line: Anthelmintic activity against Nippostrongylus brasiliensis. Type of assay: functional.
The subject of assay [2] is HCT-15. Put plainly: Cytotoxicity against HCT15 cell line by SRB assay. Type of assay: functional, Homo sapiens.

In ChEMBL document CHEMBL1139002, “Synthesis and biological evaluation of simplified mycothiazole analogues” (2006) one finds LC50 and IG50 data, which are given here for six compounds.

Molecules are shown by their SMILES.

What is called LC50 is the concentration that kills 50% of the test population. A lower LC50 goes with a more lethal substance.

Compound `C=CC/C=C\C[C@@H]1CSC(C(C)(C)C(C/C=C\CNC(=O)OC)OC(C)=O)=N1` (stereo partly drawn) came in with a median lethal concentration (LC50) in assay [1] above 300 µM.
In assay [1], `C=CCC1COC(C(C)(C)C(C/C=C\CNC(=O)OC)OC(C)=O)=N1` (stereo not drawn) came in with a 50% lethal concentration (LC50) of 40 µM. For the same compound, the IG50 in assay [2] was 430 µM.
For `CCCSc1ccc2[nH]c(NC(=O)OC)nc2c1` [ALBENDAZOLE], the median lethal concentration (LC50) in assay [1] came to 0.34 µM.
`C=CC/C=C\C[C@@H]1CSC(C(C)(C)C(O)C/C=C\CNC(=O)OC)=N1` (stereo partly drawn) had an IG50 in assay [2] of 13 µM.
As for `C=CC/C=C\C[C@@H]1COC(C(C)(C)C(C/C=C\CNC(=O)OC)OC(C)=O)=N1` (stereo partly drawn), in assay [1], the LC50 came to 40 µM. This compound also had an IG50 in assay [2] of 150 µM.
The compound `CO[C@@]12[C@H](COC(N)=O)C3=C(C(=O)C(C)=C(N)C3=O)N1C[C@@H]1N[C@@H]12` [MITOMYCIN] yielded an IG50 in assay [2] of 1.6 µM.
